Laboratory results from paper PMC4774911, “Biochemical Screening of Five Protein Kinases from Plasmodium falciparum against 14,000 Cell-Active Compounds” (PLoS ONE, 2016).
Where “and” joins values, the source holds several entries; their conditions need not be identical. Equal entries are not always repeated.

How the values were obtained:
Assay in all cases: biochemical
Design in all cases: endogenous in cells; host or cells: K562 cell extract; species or system K562 (extract); replicate k of n = 2 (each experiment ID is one independent experiment; two experiment IDs per compound)
Details in all cases: read-out: KDapp
TP53RK = target: T1, TP53RK (Homo sapiens, UniProt Q96S44)
T1 sequence (Q96S44 1-253): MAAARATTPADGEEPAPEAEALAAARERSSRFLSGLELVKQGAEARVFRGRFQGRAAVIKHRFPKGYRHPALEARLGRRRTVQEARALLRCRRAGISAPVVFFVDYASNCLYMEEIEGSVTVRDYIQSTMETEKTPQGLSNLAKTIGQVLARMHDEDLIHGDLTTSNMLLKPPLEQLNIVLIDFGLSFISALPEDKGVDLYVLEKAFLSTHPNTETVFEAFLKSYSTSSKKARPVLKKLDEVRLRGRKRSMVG

STK4 = target: T2, STK4 (Homo sapiens, UniProt Q13043)
T2 sequence (Q13043 1-487): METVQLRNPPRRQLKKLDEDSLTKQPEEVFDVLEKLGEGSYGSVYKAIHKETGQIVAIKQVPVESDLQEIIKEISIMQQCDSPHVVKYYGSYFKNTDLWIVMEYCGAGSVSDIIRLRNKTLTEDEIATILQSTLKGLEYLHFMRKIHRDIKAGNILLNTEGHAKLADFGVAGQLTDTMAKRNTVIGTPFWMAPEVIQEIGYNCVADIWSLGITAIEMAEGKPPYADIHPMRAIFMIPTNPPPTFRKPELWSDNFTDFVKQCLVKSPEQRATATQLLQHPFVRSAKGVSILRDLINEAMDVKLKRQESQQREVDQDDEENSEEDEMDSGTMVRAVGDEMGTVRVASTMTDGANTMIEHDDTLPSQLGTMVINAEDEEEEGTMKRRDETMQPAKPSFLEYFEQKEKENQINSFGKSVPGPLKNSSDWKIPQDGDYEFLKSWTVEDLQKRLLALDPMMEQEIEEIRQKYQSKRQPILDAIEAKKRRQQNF

PKMYT1 = target: T3, PKMYT1 (Homo sapiens, UniProt Q99640)
T3 sequence (Q99640 1-499): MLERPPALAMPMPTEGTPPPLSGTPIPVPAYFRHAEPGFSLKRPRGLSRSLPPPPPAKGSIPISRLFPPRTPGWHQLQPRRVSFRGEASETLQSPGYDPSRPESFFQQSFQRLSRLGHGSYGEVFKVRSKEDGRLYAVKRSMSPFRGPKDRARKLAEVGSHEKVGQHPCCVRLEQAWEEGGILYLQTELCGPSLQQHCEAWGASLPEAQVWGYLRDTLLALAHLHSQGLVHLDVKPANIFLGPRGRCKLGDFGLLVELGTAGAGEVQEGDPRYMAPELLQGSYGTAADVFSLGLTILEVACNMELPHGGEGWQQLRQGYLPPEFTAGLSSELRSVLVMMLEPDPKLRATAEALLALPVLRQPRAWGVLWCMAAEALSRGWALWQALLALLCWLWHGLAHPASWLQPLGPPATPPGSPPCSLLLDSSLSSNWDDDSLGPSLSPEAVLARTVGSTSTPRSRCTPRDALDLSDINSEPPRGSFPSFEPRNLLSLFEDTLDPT

AURKA = target: T4, AURKA (Homo sapiens, UniProt O14965)
T4 sequence (O14965 1-403): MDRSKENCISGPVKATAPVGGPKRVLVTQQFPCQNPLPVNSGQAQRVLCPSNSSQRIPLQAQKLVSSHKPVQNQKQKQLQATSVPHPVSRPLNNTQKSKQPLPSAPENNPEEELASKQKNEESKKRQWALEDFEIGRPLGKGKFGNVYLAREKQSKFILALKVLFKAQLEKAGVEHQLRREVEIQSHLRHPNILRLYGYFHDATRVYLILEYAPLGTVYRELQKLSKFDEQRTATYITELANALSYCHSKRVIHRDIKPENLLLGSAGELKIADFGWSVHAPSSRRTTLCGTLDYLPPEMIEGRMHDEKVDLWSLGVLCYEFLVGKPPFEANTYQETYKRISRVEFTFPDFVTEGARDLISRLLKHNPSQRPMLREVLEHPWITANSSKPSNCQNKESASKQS

SMILES: CN1CCN(c2ccc(Nc3ncc(C#N)c(Nc4ccccc4C(N)=O)n3)cc2)CC1.Cl [TCMDC-134116]
- Kd (TP53RK): 3.77 µM
- Kd (STK4): 0.121 µM and 0.14 µM
- Kd (PKMYT1): 0.888 µM and 0.596 µM
- Kd (AURKA): 0.0123 µM
